Reference: patent US20240287048A1, “SUBSTITUTED ACYL SULFONAMIDES FOR TREATING CANCER” (The Broad Institute, Inc., priority 2020, published 2024)

Experiments:
KAT6B = biological target: T1, KAT6B (Homo sapiens, UniProt Q8WYB5); experiment: Kat6b activity assay (TR-FRET, acetylation of biotinylated histone H4 peptide); type: biochemical; details: recombinant human GST-tagged Kat6b (431-end), 30 mins at 22° C., read-out: KAT6B activity assay IC50 [mol/l] (arithmetic mean)
T1 construct: fused on or other part: N-terminal GST tag
T1 sequence (Q8WYB5 723-2073 limits assumed): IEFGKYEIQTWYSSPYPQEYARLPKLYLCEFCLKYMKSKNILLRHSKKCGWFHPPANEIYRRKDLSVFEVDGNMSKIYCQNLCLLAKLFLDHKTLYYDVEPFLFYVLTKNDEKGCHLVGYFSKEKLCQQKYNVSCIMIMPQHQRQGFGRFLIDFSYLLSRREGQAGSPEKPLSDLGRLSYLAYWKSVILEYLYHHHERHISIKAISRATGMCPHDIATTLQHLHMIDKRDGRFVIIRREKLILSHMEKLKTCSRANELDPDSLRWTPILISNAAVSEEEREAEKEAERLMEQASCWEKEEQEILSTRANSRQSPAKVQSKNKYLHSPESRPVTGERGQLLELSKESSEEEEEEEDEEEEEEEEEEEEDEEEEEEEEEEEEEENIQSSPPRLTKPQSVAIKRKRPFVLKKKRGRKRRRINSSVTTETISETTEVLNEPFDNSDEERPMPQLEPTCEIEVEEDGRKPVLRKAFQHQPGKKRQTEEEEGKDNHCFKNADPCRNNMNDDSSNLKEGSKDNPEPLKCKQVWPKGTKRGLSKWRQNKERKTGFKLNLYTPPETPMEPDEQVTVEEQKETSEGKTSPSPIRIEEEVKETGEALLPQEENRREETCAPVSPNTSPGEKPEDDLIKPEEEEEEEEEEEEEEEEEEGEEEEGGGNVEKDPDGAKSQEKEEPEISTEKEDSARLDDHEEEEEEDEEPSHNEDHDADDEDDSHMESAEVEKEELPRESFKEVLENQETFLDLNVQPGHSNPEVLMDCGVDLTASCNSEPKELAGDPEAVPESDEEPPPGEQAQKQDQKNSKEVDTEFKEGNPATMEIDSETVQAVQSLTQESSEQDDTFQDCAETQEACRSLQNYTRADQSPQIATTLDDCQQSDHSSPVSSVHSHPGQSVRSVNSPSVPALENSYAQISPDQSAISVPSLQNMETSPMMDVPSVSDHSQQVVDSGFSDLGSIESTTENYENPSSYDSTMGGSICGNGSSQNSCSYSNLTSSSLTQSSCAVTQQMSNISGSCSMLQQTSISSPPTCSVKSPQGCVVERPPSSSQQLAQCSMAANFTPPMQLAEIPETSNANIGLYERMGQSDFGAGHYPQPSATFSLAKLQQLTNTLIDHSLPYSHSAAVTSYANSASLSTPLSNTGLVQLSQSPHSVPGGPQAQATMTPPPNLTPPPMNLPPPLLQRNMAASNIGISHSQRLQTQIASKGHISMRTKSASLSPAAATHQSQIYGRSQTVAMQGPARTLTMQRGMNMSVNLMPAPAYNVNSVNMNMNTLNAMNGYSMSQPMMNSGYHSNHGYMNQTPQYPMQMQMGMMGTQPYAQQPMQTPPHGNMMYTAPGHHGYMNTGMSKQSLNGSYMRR
Source text: Kat6b inhibitory activities of the compounds described in the present invention were quantified using a Fluorescence Resonance Energy Transfer (TR-FRET) assay which measures acetylation of a synthetic, biotinylated Histone-H4-derived peptide by the enzyme.
Recombinant human GST-tagged Kat6b protein (431-end, N-terminal GST-tag), purified from Baculovirus-infected insect cells (Sf9), was purchased from SignalChem (#K315-381BG). Histone H4 peptide (amino acids 1-24, […]-VLRD-K(Btn)-amide), which was used as substrate, was synthesized by Biosyntan GmbH, Berlin, Germany. Acetyl Coenzyme A was purchased from Sigma-Aldrich (#A-2056).
Kat6b was incubated for 30 mins at 22° C. in the presence of different concentrations of test substances (0 μM, and within the range 0.01-20 μM) in assay buffer [25 mM Tris/HCl pH 8, 1 mM EGTA, 2.5 mM Glutathion, 0.02% Chicken Albumin, 0.05% Pluronic F127, 25 mM NaCl, 500 nM H4 peptide and 600 nM Acetyl Coenzyme A].
The reaction was stopped by addition of Detection Solution (25 mM HEPES pH 7.5, 0.1% BSA, 22 nM SAXL665 (Cisbio #610SAXLE), 100 μM Anacardic Acid (Enzo #ALX-270-381), 1 nM Anti-Histone H4 (ACETYL K8) Antibody (ABCAM #AB15823), 0.5 nM Anti-Rabbit IgG Eu (Perkin Elmer #AD0083).
The fluorescence emission at 620 nm and 665 nm after excitation at 330-350 nm was measured in a TR-FRET measuring instrument, for instance a Rubystar or a Pherastar (both from BMG Lab Technologies, Offenburg, Germany) or a Viewlux (Perkin-Elmer). The ratio of the emission at 665 nm and at […] was used as indicator of the amount of acetylated peptide.
The resulting data (ratio) were normalized, taking 0% inhibition as the mean value of control measurements where all reagents were included. In this case 50 nl DMSO were used instead of compounds. […] IC50 values were determined by regression analysis based on a 4 parameter equation (minimum, maximum, ICM, Hill; Y=Max+(Min−Max)/(1+(X/ICso) Hill) using the Screener Software (Genedata).

[1] = tested on: ESR1 transcription in MVLN cells; experiment: Repression of ESR1 transcription, MVLN luciferase reporter assay; type: cell-based; details: Homo sapiens, luciferase signal after 24 h, read-out: MVLN reporter assay, IC50[M] (arithmetic mean)
Outline: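 MVLN cells stably carry an ER-responsive vitellogenin A2 element driving luciferase. After 24 h of compound treatment, luciferase was read in lysate as the measure of ERα transcription. Alamar Blue fluorescence (530/590 nm, 2 h) was read first to control for cell loss; samples were run in duplicate.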

KAT6A = biological target: T2, KAT6A (Homo sapiens, UniProt Q92794); experiment: Kat6a activity assay (TR-FRET, acetylation of biotinylated histone H4 peptide); type: biochemical; details: recombinant human His-tagged Kat6a (amino acids 194-810), 60 mins at 22° C., read-out: KAT6A-DPF/HAT domain IC50 [mol/l] (arithmetic mean)
T2 construct: Recombinant human His-tagged Kat6a protein (amino acids 194-810); His; made in house; host or cells: Baculovirus-infected Sf9 insect cells
T2 sequence (Q92794 194-810): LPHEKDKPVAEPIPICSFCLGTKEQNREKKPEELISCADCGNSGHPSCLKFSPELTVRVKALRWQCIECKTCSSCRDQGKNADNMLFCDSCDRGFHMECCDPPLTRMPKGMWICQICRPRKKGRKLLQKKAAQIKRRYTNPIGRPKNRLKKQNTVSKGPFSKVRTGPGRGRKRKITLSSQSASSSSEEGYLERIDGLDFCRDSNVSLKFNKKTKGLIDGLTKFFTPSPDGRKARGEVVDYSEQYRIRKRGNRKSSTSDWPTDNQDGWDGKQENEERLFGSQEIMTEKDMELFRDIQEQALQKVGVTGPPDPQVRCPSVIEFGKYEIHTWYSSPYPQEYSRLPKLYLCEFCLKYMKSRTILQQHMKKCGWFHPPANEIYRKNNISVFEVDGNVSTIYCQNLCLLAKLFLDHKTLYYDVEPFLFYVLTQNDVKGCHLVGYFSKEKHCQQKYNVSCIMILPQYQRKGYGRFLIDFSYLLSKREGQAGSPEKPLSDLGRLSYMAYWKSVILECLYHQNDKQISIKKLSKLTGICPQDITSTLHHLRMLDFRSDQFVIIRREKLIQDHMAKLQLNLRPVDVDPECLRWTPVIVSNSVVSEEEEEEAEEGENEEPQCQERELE
Outline: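 His-tagged human Kat6a (aa 194-810, Sf9-expressed) with compound (0.01-20 μM) for 60 min at 22° C., pH 8 Tris buffer, 220 nM biotinylated H4 peptide (aa 1-24) and 600 nM acetyl-CoA. Acetyl-K8 detected by Eu-antibody/SA-XL665 TR-FRET (665/620 nm ratio); IC50 from 4-parameter fit.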

MDA-MB-436 cells = experiment: Proliferation assay in MDA-MB-436 cells (negative control cell line); type: cell-based; details: Homo sapiens, 144 h, Alamar Blue, read-out: MDA-MB-436 proliferation assay, EC50[M] (arithmetic mean)
Source text: (§1) For compound characterization cell survival assays were routinely run in two cell lines. ZR-75-1 is a breast carcinoma cell line containing a focal KAT6A amplification and high KAT6A protein expression. Proliferation of this cell line is inhibited upon treatment with KAT6A inhibitors. As a negative control cell line MDA-MB-436 were used. These cells carry a […] deletion of the KAT6A gene, have a low KAT6A protein expression and are not growth inhibited upon treatment with KAT6A inhibitors.
(§2) For measurements cell lines were plated at the below indicated concentration per […] in 96-well plates in a humidified incubator at 37° C. and 5% CO2.
(§3) ZR-75-1 (ATCC, CRL-1500; breast carcinoma); 3000 cells per well; culture medium: RPMI 1640 (Biochrom #FG 1215) medium containing 2.5% FBS (Biochrom #S0615). LCLC-97TM1 (DSMZ, ACC 388; large cell lung carcinoma); 6000 cells per well; culture medium: RPMI 1640 (Biochrom #FG 1215) medium containing 2.5% FBS (Biochrom #S0615). MDA-MB-436 (CLS, 300278; breast adenocarcinoma); 3000 cells per well; culture medium: DMEM/Ham's F12 (Biochrom #FG 4815) medium containing 2.5% FBS (Biochrom #S0615).
(§4) Each sample was prepared as triplicate and rim wells were excluded. Plates were incubated at 37° C. and 5% CO2 for 144 h. Cell viability was measured by adding 10 μL of Alamar Blue Reagent (Invitrogen #DAL 1100) and plates were incubated for 2 h at 37° C. and 5% CO2. Fluorescence was measured at 590 nm wavelength with a Tecan Spark or Victor X3 MTP-Reader (PerkinElmer).

ZR-75-1 cells = experiment: Proliferation assay in ZR-75-1 cells; type: cell-based; details: Homo sapiens, 144 h, Alamar Blue, read-out: ZR75-1 proliferation assay, EC50[M] (arithmetic mean)
Source text: as §1, §2, §3, §4

LCLC-97TM1 cells = experiment: Proliferation assay in LCLC-97TM1 cells; type: cell-based; details: Homo sapiens, 144 h, Alamar Blue, read-out: LCLC97TM1 proliferation assay, EC50[M] (arithmetic mean)
Protocol: as §2, §3, §4

[2] = tested on: Salmonella tester strain TA100; experiment: Bacterial reverse gene mutation test Ames MPF Penta I, TA100; type: cell-based
Source text: (§5) The employed commercial assay Ames MPF Penta I comprises the histidine auxotrophic Salmonella tester strains TA98, TA100, TA1535, TA1537 and two tryptophan auxotrophic tester strains E. coli wp2 (E. coli wp2 [pKM101] and E. coli wp2 uvrA, combined exposure). These strains meet the requirements of the OECD guideline 471 for testing chemicals.
(§6) Bacterial strains were exposed to various concentrations of the test compounds in a histidine (His) or tryptophane (Trp) deficient medium. As recommended by ICH S2(R1) guideline, the test was conducted in two assay conditions, with and without addition of microsomal enzymes (S9 mix), taking the potential formation of DNA reactive metabolites via xenobiotic biotransformation into account.
(§7) The potential of the test compound to induce gene mutations is assessed by comparing the control with the test compounds treated bacterial cultures.

[3] = tested on: Salmonella tester strain TA98; experiment: Bacterial reverse gene mutation test Ames MPF Penta I, TA98; type: cell-based
Source text: as §5, §6, §7

[4] = tested on: Salmonella tester strain TA1535; experiment: Bacterial reverse gene mutation test Ames MPF Penta I, TA1535; type: cell-based
Source text: as §5, §6, §7

[5] = tested on: Salmonella tester strain TA1537; experiment: Bacterial reverse gene mutation test Ames MPF Penta I, TA1537; type: cell-based
Source text: as §5, §6, §7

[6] = tested on: E. coli wp2 (E. coli wp2 [pKM101] and E. coli wp2 uvrA, combined exposure); experiment: Bacterial reverse gene mutation test Ames MPF Penta I, E. coli wp2; type: cell-based
Source text: as §5, §6, §7

Row | SMILES | IC50 (KAT6B) | IC50 [1] | IC50 (KAT6A) | EC50 (MDA-MB-436 cells) | EC50 (ZR-75-1 cells) | EC50 (LCLC-97TM1 cells) | Result of the bacterial reverse gene mutation test Ames MPF Penta I, TA100 ([2]; with addition of S9 mix) | Result of the bacterial reverse gene mutation test Ames MPF Penta I, TA100 ([2]; without addition of S9 mix) | Result of the bacterial reverse gene mutation test Ames MPF Penta I, TA98 ([3]; with addition of S9 mix) | Result of the bacterial reverse gene mutation test Ames MPF Penta I, TA98 ([3]; without addition of S9 mix) | Result of the bacterial reverse gene mutation test Ames MPF Penta I, TA1535 ([4]; with addition of S9 mix) | Result of the bacterial reverse gene mutation test Ames MPF Penta I, TA1535 ([4]; without addition of S9 mix) | Result of the bacterial reverse gene mutation test Ames MPF Penta I, TA1537 ([5]; with addition of S9 mix) | Result of the bacterial reverse gene mutation test Ames MPF Penta I, TA1537 ([5]; without addition of S9 mix) | Result of the bacterial reverse gene mutation test Ames MPF Penta I, E. coli wp2 ([6]; with addition of S9 mix) | Result of the bacterial reverse gene mutation test Ames MPF Penta I, E. coli wp2 ([6]; without addition of S9 mix)
1 | Cc1cc(C)c2cc(C(=O)NS(=O)(=O)c3ccccc3-c3ccccc3)oc2c1 [Example 9, N-([1,1′-biphenyl]-2-sulfonyl)-4,6-dimethyl-1-benzofuran-2-carboxamide] | 0.22 µM | 2.5e-06 M | 0.0905 µM | > 2e-05 M | 1.81e-05 M |  |  |  |  |  |  |  |  |  |  | 
2 | COc1cc(C)cc2oc(C(=O)NS(=O)(=O)c3ccccc3-c3ccccc3)cc12 [Example 10, N-([1,1′-biphenyl]-2-sulfonyl)-4-methoxy-6-methyl-1-benzofuran-2-carboxamide] | 1.12 µM | 1e-05 M | 0.933 µM | > 2e-05 M | 1.39e-05 M |  |  |  |  |  |  |  |  |  |  | 
3 | Cc1cc(C)c2cc(C(=O)NS(=O)(=O)c3ccccc3-c3cccc(Cl)c3)oc2c1 [Example 11, N-(3′-chloro[1,1′-biphenyl]-2-sulfonyl)-4,6-dimethyl-1-benzofuran-2-carboxamide] | 0.299 µM | 5.85e-06 M | 0.0635 µM | 1.42e-05 M | 1.17e-05 M |  |  |  |  |  |  |  |  |  |  | 
4 | COc1cc(C)cc2oc(C(=O)NS(=O)(=O)c3ccc(C)cc3-c3ccccc3)cc12 [Example 12, 4-Methoxy-6-methyl-N-(5-methyl[1,1′-biphenyl]-2-sulfonyl)-1-benzofuran-2-carboxamide] | 0.372 µM | 6.05e-06 M | 0.401 µM | > 2e-05 M | 1.03e-05 M |  |  |  |  |  |  |  |  |  |  | 
5 | CCOc1ccccc1S(=O)(=O)NC(=O)c1cc2c(OC)cc(C)cc2o1 [Example 13, N-(2-Ethoxybenzene-1-sulfonyl)-4-methoxy-6-methyl-1-benzofuran-2-carboxamide] | 1.73 µM | 5.08e-06 M | 1.13 µM | > 2e-05 M | 1.02e-05 M |  |  |  |  |  |  |  |  |  |  | 
6 | Cc1cc(C)c2cc(C(=O)NS(=O)(=O)c3cccc4ccc(C)nc34)oc2c1 [Example 21, 4,6-Dimethyl-N-(2-methylquinoline-8-sulfonyl)-1-benzofuran-2-carboxamide] | 0.0531 µM | 1.17e-06 M | 0.0271 µM | > 2e-05 M | 1.61e-06 M | 3.47e-06 M |  |  |  |  |  |  |  |  |  | 
7 | CCOc1ccccc1S(=O)(=O)NC(=O)c1cc2c(F)cc(C3CC3)cc2o1 [Example 25, 6-Cyclopropyl-N-(2-ethoxybenzene-1-sulfonyl)-4-fluoro-1-benzofuran-2-carboxamide] | 0.0284 µM | 5.42e-07 M |  | > 2e-05 M | 6.44e-07 M | > 2e-05 M | negative | negative | negative | negative | negative | negative | negative | negative | negative | negative
8 | CCC(C)c1ccc2cc(C(=O)NS(=O)(=O)c3ccccc3-c3ccccc3)oc2c1 (centres unmarked) [Example 27, N-([1,1′-biphenyl]-2-sulfonyl)-6-(butan-2-yl)-1-benzofuran-2-carboxamide] | 9.21 µM | > 2e-05 M | 2.03 µM | > 2e-05 M | > 2e-05 M |  |  |  |  |  |  |  |  |  |  | 
9 | CC(C)c1ccc2cc(C(=O)NS(=O)(=O)c3ccccc3-c3ccccc3)oc2c1 [Example 54, N-{[1,1′-Biphenyl]-2-sulfonyl}-6-(propan-2-yl)-1-benzofuran-2-carboxamide] | 0.667 µM | 3.02e-06 M | 0.464 µM | > 2e-05 M | 5.75e-06 M | > 2e-05 M |  |  |  |  |  |  |  |  |  | 
10 | CC(C)c1ccc2cc(C(=O)NS(=O)(=O)c3ccccc3)oc2c1 [Example 56, N-(Benzenesulfonyl)-6-(propan-2-yl)-1-benzofuran-2-carboxamide] | 3.94 µM | 1.52e-05 M | 1.56 µM | > 2e-05 M | > 2e-05 M |  |  |  |  |  |  |  |  |  |  | 
11 | CC(C)c1ccc2cc(C(=O)NS(=O)(=O)c3ccccc3Cl)oc2c1 [Example 73, N-(2-chlorobenzenesulfonyl)-6-(propan-2-yl)-1-benzofuran-2-carboxamide] | 1.78 µM | 8.69e-06 M | 1.35 µM | > 2e-05 M | 7.08e-06 M | > 2e-05 M |  |  |  |  |  |  |  |  |  | 
